Each structure is given as a SMILES string.

The test system of one experiment is HBV viral load production from HepAD38 cells. Briefly: Viral production from HepAD38 cells: viral load in supernatant by qPCR of the HBV core sequence. The format is cell-based. The settings on record: 5 days incubation, qPCR of supernatant HBV DNA vs DMSO control, read-out: viral load lowering EC50 (Activity). The procedure: Assay Measuring Activity of Test Compounds on Viral Production from HepAD38 Cells
HepAD38 cells grown in a T-150 flask (Corning, cat #: 430825) with Growth Medium (DMEM/F12 […] (Hyclone, cat #: SH30023.02), 1× Pen/Strep (Invitrogen, cat #: 15140-122), 10% FBS (Tissue Culture Biologics, cat #: 101), […] G418 (Alfa Aesar, cat #: J62671), 1 μg/mL Tetracycline (Teknova, cat #: T3320)) were detached with 0.25% trypsin-EDTA (Invitrogen, cat #: 25200-056). Tetracycline-free treatment medium (15 mL DMEM/F12 (1:1) 1× Pen/step, with 2% FBS, Tet-system approved (Clontech, cat #: 631106) were then added to mix, transferred into a 50 ml conical tube (Falcon, cat #: 21008-918,) and spun at 1300 rpm for 5 min. Pelleted cells were then re-suspended/washed with 50 mL of 1×DPBS (Invitrogen, cat #: 14190-136) 2 times and 50 mL treatment medium twice. HepAD38 cells were then re-suspended with 10 mL of treatment medium, syringed and counted. Wells of 96-well clear bottom TC plate (Corning, cat #: 3904,) were seeded at 50,000 cells/well in 180 μL of treatment medium, and 20 μL of either 10% DMSO (Sigma, cat #: D4540) as controls or a 10× solution of test compounds in 10% DMSO in treatment media was added for a final compound concentration starting at 10 μM, and plates were incubated in 5% CO2 incubator at 37° C. for 5 days.
Subsequently viral load production was assayed by quantitative PCR (qPCR) of the HBV core sequence. PCR reaction mixture containing forward primers HBV-f 5′-CTGTGCCTTGGGTGGCTIT-3′ (IDT DNA), Reverse primers HBV-r 5′-[…]-3′ (IDT DNA), Fluorescent TaqMan™ Probes HBV-probe 5′-FAM/AGCTCCAAA/ZEN/[…]/3IABkFQ-3′ (IDT DNA), 10 μL/well of PerfeCTa® qPCR ToughMix® (Quanta Biosciences, Cat #: 95114-05K), and 6 μL/well of DEPC water (Alfa Aesar, cat #: J62087) was prepared. Four μL of supernatant was added to 16 μL of the reaction mixture in a qPCR plate (Applied Biosytems, Cat #: 4309849), sealed with a film (Applied Biosystems, Cat #: 4311971), centrifuged for a few seconds, and subsequently run on an Applied Biosystems VIIA7. The PCR mixture was incubated at 45° C. for 5 min, then 95° C. for 10 min, followed by 40 cycles of 10 seconds at 95° C. and 20 seconds at 60° C. Viral load was quantified against known HBV DNA standards by using ViiA™ 7 Software. Viral load in the supernatant from wells with treated cells were compared against viral load in supernatant from DMSO control wells (≥3 per plate). Cell viability assay was performed with CellTiter-Glo Luminescent Cell Viability Assay (Promega, cat #: G7573) with modification. Mixed appropriate amount of CellTiter-Glo (CTG) 1×DPBS in a 1:1 ratio, added 100 uL of the mixture to each well followed completely removal of all supernatant in each well without touching cell surface. Incubated the plate at room temperature for 10 min on an orbital shaker, and then read the plate with a plate reader (TECAN M1000 or Envision). EC50 or CC50 values were calculated through curve-fitting of the four-parameter nonlinear-logistic-regression model (GraphPad Prism or Dotmatics). CC50 values were all >10 μM.
For orientation: Quantitative PCR measures a nucleic acid by following its amplification.
The term EC50 denotes the concentration that produces a half-maximal response. For `CN1C(C(=O)Nc2ccc(F)c(Cl)c2)CC(C(=O)NC2CCN(c3ccnc(Cl)c3)CC2)NS1(=O)=O` (single isomer, unassigned) [1012-ISOMER-B, N3-(3-Chloro-4-fluoro-phenyl)-N5-[1-(2-chloro-4-pyridyl)-4-piperidyl]-2-methyl-1,1-dioxo-1,2,6-thiadiazinane-3,5-dicarboxamide], the EC50 was in the range of 50 to 100 nM.

`Cc1cnc(CNC(=O)C2CC(C(=O)Nc3ccc(F)c(Cl)c3)N(C)S(=O)(=O)N2)s1` (single isomer, unassigned) [Compound 687-ISOMER-B, N3-(3-chloro-4-fluoro-phenyl)-2-methyl-N5-[(5-methylthiazol-2-yl)methyl]-1,1-dioxo-1,2,6-thiadiazinane-3,5-dicarboxamide]: the EC50 was less than 50 nM.

Regarding `CC(C)OC1CCC(NC(=O)C2CC(C(=O)Nc3ccc(F)c(Cl)c3)N(C)S(=O)(=O)N2)CC1` (single isomer, unassigned) [Compound 862-ISOMER-B, N3-(3-chloro-4-fluoro-phenyl)-N5-(4-isopropoxycyclohexyl)-2-methyl-1,1-dioxo-1,2,6-thiadiazinane-3,5-dicarboxamide], the EC50 is less than 50 nM.

The experiment is the same for the next values; noted with them: Hepatitis B virus, HePAD38, 120 h, 5 days incubation, qPCR of supernatant HBV DNA vs DMSO control, read-out: viral load lowering EC50 (Activity).
As for `Cc1cc(CNC(=O)C2CC(C(=O)Nc3ccc(F)c(Cl)c3)N(C)S(=O)(=O)N2)n(C)n1` (centres unmarked) [Compound 482], the EC50 is less than 50 nM. The same measure, in the same setting: under `Cc1nc(-c2ccc(OCCN3CCCCC3)cc2)sc1CNC(=O)C1CC(C(=O)Nc2ccc(F)c(Cl)c2)N(C)S(=O)(=O)N1` (centres unmarked) [Compound 1087] stands less than 50 nM. `CN1C(C(=O)Nc2ccc(F)c(Cl)c2)CC(C(=O)NCc2sc(-c3ccccc3F)nc2C(F)(F)F)NS1(=O)=O` (centres unmarked) [Compound 1082]: the EC50 is less than 50 nM. Same read-out and setting: then `CN1C(C(=O)Nc2ccc(F)c(Cl)c2)CC(C(=O)NCc2cc(-c3ccc(F)cc3)n(C)n2)NS1(=O)=O` (single isomer, unassigned) [1151-ISOMER-A, N3-(3-chloro-4-fluoro-phenyl)-N5-[[5-(4-fluorophenyl)-1-methyl-pyrazol-3-yl]methyl]-2-methyl-1,1-dioxo-1,2,6-thiadiazinane-3,5-dicarboxamide], with less than 50 nM; and `CN1C(C(=O)Nc2ccc(F)c(Cl)c2)CC(C(=O)NCc2ccccc2Br)NS1(=O)=O` (centres unmarked) [Compound 821], with less than 50 nM; and `CN1C(C(=O)Nc2ccc(F)c(Cl)c2)CC(C(=O)NC2CCC(F)(F)CC2)NS1(=O)=O` (centres unmarked) [Compound 859], with 100 to 10000 nM. Regarding `CN1C(C(=O)Nc2ccc(F)c(Cl)c2)CC(C(=O)Nc2cccc3cnccc23)NS1(=O)=O` (centres unmarked) [Compound 485], the EC50 was less than 50 nM. As to `CN1C(C(=O)Nc2ccc(F)c(Cl)c2)CC(C(=O)NCc2cnc(N)s2)NS1(=O)=O` (centres unmarked) [Compound 1132], the EC50 is 100 to 10000 nM. For `CN1C(C(=O)Nc2ccc(F)c(Cl)c2)CC(C(=O)NC2CCN(c3ccnc(Cl)c3)CC2)NS1(=O)=O` (centres unmarked) [Compound 1012], the EC50 is less than 50 nM.

`CN1C(C(=O)Nc2ccc(F)c(Cl)c2)CC(C(=O)NCCc2ccccc2)NS1(=O)=O` (centres unmarked) [Compound 732]: the EC50 fell in the range of 100 to 10000 nM.

In the case of `CN(C)CC(C)(C)COc1ccc(-c2ncc(CNC(=O)C3CC(C(=O)Nc4ccc(F)c(Cl)c4)N(C)S(=O)(=O)N3)s2)cc1` (single isomer, unassigned) [Compound 943-ISOMER-A, N3-(3-chloro-4-fluoro-phenyl)-N5-[[2-[4-[3-(dimethylamino)-2,2-dimethyl-propoxy]phenyl]thiazol-5-yl]methyl]-2-methyl-1,1-dioxo-1,2,6-thiadiazinane-3,5-dicarboxamide], the EC50 is less than 50 nM.

For `COc1cccc(CNC(=O)C2CC(C(=O)Nc3ccc(F)c(Cl)c3)N(C)S(=O)(=O)N2)c1` (centres unmarked) [Compound 721], the EC50 was less than 50 nM.

On to `CC(C)OC(=O)N1CCC(NC(=O)C2CC(C(=O)Nc3ccc(F)c(Cl)c3)N(C)S(=O)(=O)N2)CC1` (single isomer, unassigned) [Compound 766-ISOMER-A, isopropyl 4-[[5-[(3-chloro-4-fluoro-phenyl)carbamoyl]-6-methyl-1,1-dioxo-1,2,6-thiadiazinane-3-carbonyl]amino]piperidine-1-carboxylate], for which the EC50 is less than 50 nM. In the case of `CN1C(C(=O)Nc2ccc(F)c(Cl)c2)CC(C(=O)NC(c2ccccc2)c2cnc(-c3ccccc3)s2)NS1(=O)=O` (single isomer, unassigned) [1067-ISOMER-A, N3-(3-chloro-4-fluoro-phenyl)-2-methyl-1,1-dioxo-N5-[phenyl-(2-phenylthiazol-5-yl)methyl]-1,2,6-thiadiazinane-3,5-dicarboxamide], the EC50 is less than 50 nM. With `Cc1cn(-c2ccc(F)cc2)nc1CNC(=O)C1CC(C(=O)Nc2ccc(F)c(Cl)c2)N(C)S(=O)(=O)N1` (single isomer, unassigned) [1141-ISOMER-A, N3-(3-chloro-4-fluoro-phenyl)-N5-[[1-(4-fluorophenyl)-4-methyl-pyrazol-3-yl]methyl]-2-methyl-1,1-dioxo-1,2,6-thiadiazinane-3,5-dicarboxamide], the EC50 is less than 50 nM. Regarding `CN1C(C(=O)Nc2ccc(F)c(Cl)c2)CC(C(=O)NC(c2ccccc2)c2cnc(-c3ccccc3F)s2)NS1(=O)=O` (centres unmarked) [Compound 1084], the EC50 is less than 50 nM. Same read-out and setting: then `Cc1cn(-c2ccc(F)cc2F)nc1CNC(=O)C1CC(C(=O)Nc2ccc(F)c(Cl)c2)N(C)S(=O)(=O)N1` (centres unmarked) [Compound 1144], with less than 50 nM; and `Cc1ccccc1-c1nc(C)c(CNC(=O)C2CC(C(=O)Nc3ccc(F)c(Cl)c3)N(C)S(=O)(=O)N2)s1` (single isomer, unassigned) [1017-ISOMER-A, N3-(3-chloro-4-fluoro-phenyl)-2-methyl-N5-[[4-methyl-2-(o-tolyl)thiazol-5-yl]methyl]-1,1-dioxo-1,2,6-thiadiazinane-3,5-dicarboxamide], with less than 50 nM. For the compound `CC(NC(=O)C1CC(C(=O)Nc2ccc(F)c(Cl)c2)N(C)S(=O)(=O)N1)c1cnc(Cl)s1` (centres unmarked) [Compound 1030], the EC50 was less than 50 nM. `CN1C(C(=O)Nc2ccc(F)c(Cl)c2)CC(C(=O)NCc2cccc(Cl)c2)NS1(=O)=O` (centres unmarked) [Compound 730]: the EC50 is less than 50 nM. In the case of `Cc1nc(-c2ccccc2)sc1C(NC(=O)C1CC(C(=O)Nc2ccc(F)c(Cl)c2)N(C)S(=O)(=O)N1)c1ccccc1` (centres unmarked) [Compound 1099], the concentration for a half-maximal effect (EC50) was in the range of 50 to 100 nM. As to `CN1C(C(=O)Nc2ccc(F)c(Cl)c2)CC(C(=O)NCc2cnc(-c3cccc(Cl)c3)s2)NS1(=O)=O` (single isomer, unassigned) [Compound 913-ISOMER-A, N3-(3-chloro-4-fluoro-phenyl)-N5-[[2-(3-chlorophenyl)thiazol-5-yl]methyl]-2-methyl-1,1-dioxo-1,2,6-thiadiazinane-3,5-dicarboxamide], the EC50 was 100 to 10000 nM. Take `CN1C(C(=O)Nc2ccc(F)c(Cl)c2)CC(C(=O)NC2CCN(c3ccnc(-c4ccccc4)c3)CC2)NS1(=O)=O` (single isomer, unassigned) [1050-ISOMER-A, N3-(3-chloro-4-fluoro-phenyl)-2-methyl-1,1-dioxo-N5-[1-(2-phenyl-4-pyridyl)-4-piperidyl]-1,2,6-thiadiazinane-3,5-dicarboxamide]: the EC50 was in the range of 100 to 10000 nM. Turning to `COc1ccnc(N2CCC(NC(=O)C3CC(C(=O)Nc4ccc(F)c(Cl)c4)N(C)S(=O)(=O)N3)CC2)c1` (centres unmarked) [Compound 972], the EC50 was less than 50 nM. Regarding `COc1ccc(CNC(=O)C2CC(C(=O)Nc3ccc(F)c(Cl)c3)N(C)S(=O)(=O)N2)cc1` (centres unmarked) [Compound 717, N3-(3-chloro-4-fluoro-phenyl)-N5-[(4-methoxyphenyl)methyl]-2-methyl-1,1-dioxo-1,2,6-thiadiazinane-3,5-dicarboxamide], the EC50 is less than 50 nM. The same measure, in the same setting: then `Cc1ccnc(N2CCC(NC(=O)C3CC(C(=O)Nc4ccc(F)c(Cl)c4)N(C)S(=O)(=O)N3)CC2)c1` (centres unmarked) [Compound 971], with less than 50 nM.

These data come from patent US20230075856A1, “CYCLIC SULFAMIDE COMPOUNDS FOR TREATMENT OF HBV” (Assembly Biosciences, Inc., priority 2018, published 2023).
